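Growth conditions: 96-well plates. Treatment: test compound, 48 hours, 5 concentrations. Analysis: linear interpolation between bracketing concentrations; unreached endpoints set to highest concentration. TGI is the concentration that stops growth completely.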
Key:
Assay in all cases: NCI-60 cell line screen, 48 h
OVCAR-4 ovarian = system: OVCAR-4 ovarian
SF-539 CNS = system: SF-539 CNS
EKVX NSCLC = system: EKVX NSCLC
SK-MEL-5 melanoma = system: SK-MEL-5 melanoma
NCI-H460 lung = system: NCI-H460 lung
HL-60(TB) leukemia = system: HL-60(TB) leukemia
A549 NSCLC = system: A549 NSCLC
MDA-MB-231 breast = system: MDA-MB-231 breast
OVCAR-3 ovarian = system: OVCAR-3 ovarian
HOP-62 NSCLC = system: HOP-62 NSCLC
SK-MEL-28 melanoma = system: SK-MEL-28 melanoma
HS 578T breast = system: HS 578T breast
COLO 205 colon = system: COLO 205 colon
HCC-2998 colon = system: HCC-2998 colon
OVCAR-8 ovarian = system: OVCAR-8 ovarian
HCT-15 colon = system: HCT-15 colon
MCF7 breast = system: MCF7 breast
RXF 393 renal = system: RXF 393 renal
UO-31 renal = system: UO-31 renal
MOLT-4 leukemia = system: MOLT-4 leukemia
PC-3 prostate = system: PC-3 prostate
NCI-H522 lung = system: NCI-H522 lung
NCI-H226 lung = system: NCI-H226 lung
UACC-257 melanoma = system: UACC-257 melanoma
786-0 renal = system: 786-0 renal
MDA-N = system: MDA-N
HOP-92 NSCLC = system: HOP-92 NSCLC
SR leukemia = system: SR leukemia
BT-549 breast = system: BT-549 breast
MDA-MB-435 = system: MDA-MB-435
T-47D breast = system: T-47D breast
RPMI-8226 leukemia = system: RPMI-8226 leukemia
IGROV1 ovarian = system: IGROV1 ovarian
A498 renal = system: A498 renal
TK-10 renal = system: TK-10 renal
LOX IMVI melanoma = system: LOX IMVI melanoma
NCI/ADR-RES ovarian = system: NCI/ADR-RES ovarian
CAKI-1 renal = system: CAKI-1 renal
CCRF-CEM leukemia = system: CCRF-CEM leukemia
HCT-116 colon = system: HCT-116 colon
SF-268 CNS = system: SF-268 CNS
SN12C renal = system: SN12C renal
HT29 colon = system: HT29 colon
SK-MEL-2 melanoma = system: SK-MEL-2 melanoma
OVCAR-5 ovarian = system: OVCAR-5 ovarian
SF-295 CNS = system: SF-295 CNS
KM12 colon = system: KM12 colon
U251 CNS = system: U251 CNS
NCI-H23 lung = system: NCI-H23 lung
DU-145 prostate = system: DU-145 prostate
SW-620 colon = system: SW-620 colon
SK-OV-3 ovarian = system: SK-OV-3 ovarian
UACC-62 melanoma = system: UACC-62 melanoma
M14 melanoma = system: M14 melanoma
K-562 leukemia = system: K-562 leukemia
ACHN renal = system: ACHN renal
SNB-19 CNS = system: SNB-19 CNS
MALME-3M melanoma = system: MALME-3M melanoma
SNB-75 CNS = system: SNB-75 CNS

CCOC(=O)c1nc2cc(Cl)ccc2[nH]c1=O gave a TGI (OVCAR-4 ovarian) greater than 100 µM, a TGI (SF-539 CNS) greater than 100 µM and a TGI (EKVX NSCLC) greater than 100 µM. For the same molecule, the TGI (SK-MEL-5 melanoma) was greater than 100 µM, the TGI (NCI-H460 lung) was greater than 100 µM and the TGI (HL-60(TB) leukemia) was greater than 100 µM. For the same molecule, the TGI (A549 NSCLC) was greater than 100 µM, the TGI (MDA-MB-231 breast) was greater than 100 µM and the TGI (OVCAR-3 ovarian) was greater than 100 µM. For the same molecule, the TGI (HOP-62 NSCLC) was greater than 100 µM, the TGI (SK-MEL-28 melanoma) was greater than 100 µM and the TGI (HS 578T breast) was greater than 100 µM. The TGI (COLO 205 colon) was greater than 100 µM, the TGI (HCC-2998 colon) was greater than 100 µM and the TGI (OVCAR-8 ovarian) was greater than 100 µM. It also gave a TGI (HCT-15 colon) greater than 100 µM, a TGI (MCF7 breast) greater than 100 µM and a TGI (RXF 393 renal) greater than 100 µM. The TGI (UO-31 renal) was greater than 100 µM, the TGI (MOLT-4 leukemia) was greater than 100 µM and the TGI (PC-3 prostate) was greater than 100 µM. It also gave a TGI (NCI-H522 lung) greater than 100 µM, a TGI (NCI-H226 lung) greater than 100 µM and a TGI (UACC-257 melanoma) greater than 100 µM. It also gave a TGI (786-0 renal) greater than 100 µM, a TGI (MDA-N) greater than 100 µM and a TGI (HOP-92 NSCLC) greater than 100 µM. The TGI (SR leukemia) was greater than 100 µM, the TGI (BT-549 breast) was greater than 100 µM and the TGI (MDA-MB-435) was greater than 100 µM. For the same molecule, the TGI (T-47D breast) was greater than 100 µM, the TGI (RPMI-8226 leukemia) was greater than 100 µM and the TGI (IGROV1 ovarian) was greater than 100 µM. The TGI (A498 renal) was greater than 100 µM, the TGI (TK-10 renal) was greater than 100 µM and the TGI (LOX IMVI melanoma) was greater than 100 µM. The TGI (NCI/ADR-RES ovarian) was greater than 100 µM, the TGI (CAKI-1 renal) was greater than 100 µM and the TGI (CCRF-CEM leukemia) was greater than 100 µM. It also gave a TGI (HCT-116 colon) greater than 100 µM, a TGI (SF-268 CNS) greater than 100 µM and a TGI (SN12C renal) greater than 100 µM. For the same molecule, the TGI (HT29 colon) was greater than 100 µM, the TGI (SK-MEL-2 melanoma) was greater than 100 µM and the TGI (OVCAR-5 ovarian) was greater than 100 µM. The TGI (SF-295 CNS) was greater than 100 µM, the TGI (KM12 colon) was greater than 100 µM and the TGI (U251 CNS) was greater than 100 µM. It also gave a TGI (NCI-H23 lung) greater than 100 µM, a TGI (DU-145 prostate) greater than 100 µM and a TGI (SW-620 colon) greater than 100 µM. It also gave a TGI (SK-OV-3 ovarian) greater than 100 µM, a TGI (UACC-62 melanoma) greater than 100 µM and a TGI (M14 melanoma) greater than 100 µM. The TGI (K-562 leukemia) was greater than 100 µM, the TGI (ACHN renal) was greater than 100 µM and the TGI (SNB-19 CNS) was greater than 100 µM. For the same molecule, the TGI (MALME-3M melanoma) was greater than 100 µM.

In the case of COc1ccc(-c2nnc3n(C)c4ccccc4n3c2=O)cc1, the TGI (OVCAR-4 ovarian) is reported as greater than 100 µM, the TGI (SF-539 CNS) is reported as greater than 100 µM and the TGI (EKVX NSCLC) is reported as greater than 100 µM. The TGI (SK-MEL-5 melanoma) was greater than 100 µM, the TGI (NCI-H460 lung) was greater than 100 µM and the TGI (HL-60(TB) leukemia) was greater than 100 µM. The TGI (A549 NSCLC) was greater than 100 µM, the TGI (MDA-MB-231 breast) was 56.2 µM and the TGI (HOP-62 NSCLC) was 37.5 µM. It also gave a TGI (SK-MEL-28 melanoma) greater than 100 µM, a TGI (HS 578T breast) greater than 100 µM and a TGI (SNB-75 CNS) of 60.4 µM. For the same molecule, the TGI (COLO 205 colon) was greater than 100 µM, the TGI (HCC-2998 colon) was greater than 100 µM and the TGI (OVCAR-8 ovarian) was greater than 100 µM. For the same molecule, the TGI (HCT-15 colon) was greater than 100 µM, the TGI (MCF7 breast) was greater than 100 µM and the TGI (RXF 393 renal) was 82.9 µM. For the same molecule, the TGI (UO-31 renal) was greater than 100 µM, the TGI (MOLT-4 leukemia) was greater than 100 µM and the TGI (PC-3 prostate) was greater than 100 µM. For the same molecule, the TGI (NCI-H522 lung) was greater than 100 µM, the TGI (NCI-H226 lung) was greater than 100 µM and the TGI (UACC-257 melanoma) was greater than 100 µM. It also gave a TGI (786-0 renal) greater than 100 µM, a TGI (MDA-N) greater than 100 µM and a TGI (HOP-92 NSCLC) greater than 100 µM. The TGI (SR leukemia) was greater than 100 µM, the TGI (BT-549 breast) was greater than 100 µM and the TGI (MDA-MB-435) was greater than 100 µM. It also gave a TGI (T-47D breast) greater than 100 µM, a TGI (IGROV1 ovarian) greater than 100 µM and a TGI (A498 renal) greater than 100 µM. It also gave a TGI (TK-10 renal) greater than 100 µM, a TGI (LOX IMVI melanoma) greater than 100 µM and a TGI (NCI/ADR-RES ovarian) greater than 100 µM. It also gave a TGI (CAKI-1 renal) greater than 100 µM, a TGI (CCRF-CEM leukemia) greater than 100 µM and a TGI (HCT-116 colon) greater than 100 µM. It also gave a TGI (SF-268 CNS) greater than 100 µM, a TGI (SN12C renal) greater than 100 µM and a TGI (HT29 colon) greater than 100 µM. For the same molecule, the TGI (SK-MEL-2 melanoma) was greater than 100 µM, the TGI (OVCAR-5 ovarian) was greater than 100 µM and the TGI (SF-295 CNS) was 84.3 µM. It also gave a TGI (KM12 colon) greater than 100 µM, a TGI (U251 CNS) of 84.9 µM and a TGI (NCI-H23 lung) greater than 100 µM. For the same molecule, the TGI (DU-145 prostate) was greater than 100 µM, the TGI (SW-620 colon) was greater than 100 µM and the TGI (M14 melanoma) was greater than 100 µM. For the same molecule, the TGI (ACHN renal) was greater than 100 µM, the TGI (SNB-19 CNS) was greater than 100 µM and the TGI (MALME-3M melanoma) was greater than 100 µM.

Reference: PubChem BioAssay (NCI)
